From PMC12519464, “Dual-Site Inhibition of SARS-CoV‑2 RNA-Dependent RNA Polymerase by Small Molecules Able to Block Viral Replication Identified through a Computer-Aided Drug Discovery Approach” (ACS Infectious Diseases, 2025)
Where two headings read alike, the source gives them in different places.

Molecular target: SARS-CoV-2 nsp12/7/8 (RTC) complex (Severe acute respiratory syndrome coronavirus 2, UniProt P0DTD1)
Experiment: biochemical
Type: biochemical
[1] = read-out: IC50: compound concentration required to inhibit by 50% the SARS-CoV-2 RTC enzymatic activity
[2] = primer-extension PAGE assay, 150 nM RTC, 5% DMSO, 30 min preincubation at 37 °C, mean and SD of at least 3 independent experiments

Row | Structure (SMILES) | IC50 [1] | IC50 | other results
1 | C/C(Nc1ccc(Oc2ccc(N/C(C)=C3\C(=O)C[C@@H]4[C@H]3C4(C)C)cc2)cc1)=C1/C(=O)C[C@@H]2[C@H]1C2(C)C [(1S,2Z,5R)-2-[1-[4-[4-[[(1Z)-1-[(1S,5R)-6,6-dimethyl-3-oxo-2-bicyclo[3.1.0]hexanylidene]ethyl]amino]phenoxy]anilino]ethylidene]-6,6-dimethylbicyclo[3.1.0]hexan-3-one] | > 100 µM |  | 
2 | Cc1oc2c(C)c3oc(=O)c(CC(=O)N4C[C@H]5C[C@@H](C4)c4cccc(=O)n4C5)c(C)c3cc2c1-c1ccccc1 [(1S,9R)-11-[2-(2,5,9-trimethyl-7-oxo-3-phenylfuro[3,2-g]chromen-6-yl)acetyl]-7,11-diazatricyclo[7.3.1.02,7]trideca-2,4-dien-6-one] | 28.3 ± 6.24 µM |  | 
3 | CC(C)[C@@H](NC(=O)C1(c2ccccc2)CCN(C(=O)OC(C)(C)C)CC1)C(=O)N[C@@H](C(=O)O)c1ccccc1 [(2R)-[(N-{[1-(tert-butoxycarbonyl)-4-phenylpiperidin-4-yl]carbonyl}-D-valyl)amino](phenyl)ethanoic acid] | > 100 µM |  | 
4 | C[C@@H]1CC[C@@]2(OC1)O[C@H]1C[C@H]3[C@@H]4CC=C5C[C@@H](O[C@@H]6O[C@H](CO)[C@@H](O)[C@H](O)[C@H]6O[C@@H]6O[C@@H](C)[C@H](O)[C@@H](O)[C@H]6O)CC[C@]5(C)[C@H]4CC[C@]3(C)[C@@]1(O)[C@@H]2C [(2S,3R,4R,5R,6S)-2-[(2R,3R,4S,5S,6R)-4,5-dihydroxy-6-(hydroxymethyl)-2-[(1R,2S,4S,5'R,6R,7S,8S,9S,12S,13R,16S)-8-hydroxy-5',7,9,13-tetramethylspiro[5-oxapentacyclo[10.8.0.02,9.04,8.013,18]icos-18-ene-6,2'-oxane]-16-yl]oxyoxan-3-yl]oxy-6-methyloxane-3,4,5-triol] | > 100 µM |  | 
5 | CO[C@H]1/C=C/O[C@@]2(C)Oc3c(C)c(O)c4c(c3C2=O)C(=O)C(N2CCCC2)=C(NC(=O)/C(C)=C\C=C\[C@H](C)[C@H](O)[C@@H](C)[C@H](O)[C@H](C)[C@H](O)[C@@H]1C)C4=O [(7S,9E,11S,12S,13S,14S,15S,16R,17S,18S,19E,21Z)-2,13,15,17-tetrahydroxy-11-methoxy-3,7,12,14,16,18,22-heptamethyl-26-pyrrolidin-1-yl-8,30-dioxa-24-azatetracyclo[23.3.1.14,7.05,28]triaconta-1(28),2,4,9,19,21,25-heptaene-6,23,27,29-tetrone] | 46.1 ± 15.6 µM |  | 
6 | CC(C)=CCC[C@@](C)(O)[C@H]1CC[C@]2(C)[C@@H]1[C@H](O)C[C@@H]1[C@@]3(C)CC[C@H](O)C(C)(C)[C@@H]3[C@@H](O[C@@H]3O[C@H](CO)[C@@H](O)[C@H](O)[C@H]3O)C[C@]12C [(20R)-Ginsenoside Rh1] | > 100 µM |  | 
7 | CC(C)=CCC[C@@](C)(O)[C@H]1CC[C@]2(C)[C@@H]1[C@H](O)C[C@@H]1[C@@]3(C)CC[C@H](O)C(C)(C)[C@@H]3CC[C@]12C [(20R)-Protopanaxadiol] | > 100 µM |  | 
8 | CC(C)=CCC[C@](C)(O)[C@H]1CC[C@]2(C)[C@@H]1[C@H](O)C[C@@H]1[C@@]3(C)CC[C@H](O)C(C)(C)[C@@H]3CC[C@]12C [(20S)-Protopanaxadiol] | > 100 µM |  | 
9 | CC(C)CC(=O)Nc1cncc(-c2ccc3[nH]nc(-c4nc5c(-c6cccc(F)c6)cncc5[nH]4)c3c2)c1 [Adavivint, reference compound] |  |  | IC50 [2]: > 100 µM
10 | CC(=O)O[C@@H](C[C@@H](C)C1=C2C[C@H](O)[C@H]3[C@@]4(C)CCC(=O)C(C)(C)[C@@H]4CC[C@]3(C)[C@@]2(C)CC1=O)[C@H]1OC1(C)C [Alisol C monoacetate] | > 100 µM |  | 
11 | CC1(C)CC[C@]2(C)CC[C@]3(C)C(=CC[C@@H]4[C@@]5(C)CC[C@@H](O)[C@](C)(C(=O)O)[C@@H]5CC[C@]43C)[C@@H]2C1 [Alpha-Boswellic acid] | 93.5 ± 9.14 µM |  | 
12 | CC[C@H](/C=C/[C@@H](C)[C@H]1CC[C@H]2C3=CC[C@H]4C[C@@H](O[C@@H]5O[C@H](CO)[C@@H](O)[C@H](O)[C@H]5O)CC[C@]4(C)[C@H]3CC[C@]12C)C(C)C [Alpha-Spinasterol glucoside] | > 100 µM |  | 
13 | C[C@H]1[C@H](C)CC[C@]2(C(=O)O)CC[C@]3(C)C(=CC[C@@H]4[C@@]5(C)C[C@@H](O)[C@H](O)[C@@](C)(CO)[C@@H]5CC[C@]43C)[C@H]12 [Asiatic Acid] |  | > 100 µM | 
14 | Cc1ccc(NC(=O)[C@H]2CCCN(C(=O)c3c(C)cccc3F)[C@H]2c2ccc(NC3CCCC3)cc2)cc1C(F)(F)F [Avacopan, reference compound] | > 100 µM |  | 
15 | O=C(Nc1nc(-c2cc(Cl)cs2)c(N2CCN(C3CCCCC3)CC2)s1)c1cnc(N2CCC(C(=O)O)CC2)c(Cl)c1 [Avatrombopag, reference compound] |  |  | IC50 [2]: 27.2 ± 7.35 µM
16 | Cc1c(-c2c(F)cc(C(N)=O)c3[nH]c4c(c23)CC[C@H](C(C)(C)O)C4)cccc1-n1c(=O)c2cccc(F)c2n(C)c1=O [BMS-986142, reference compound] |  |  | IC50 [2]: 22.8 ± 3.63 µM
17 | Nc1nc(Nc2ccc3c(c2)CC[C@@H](N2CCCC2)CC3)nn1-c1cc2c(nn1)-c1ccccc1CCC2 [Bemcentinib, reference compound] |  |  | IC50 [2]: 18.5 ± 3.41 µM
18 | C[C@H]1[C@H](C)CC[C@]2(C)CC[C@]3(C)C(=CC[C@@H]4[C@@]5(C)CC[C@@H](O)[C@](C)(C(=O)O)[C@@H]5CC[C@]43C)[C@H]12 [Beta-Boswellic acid] |  | 21.1 ± 4.45 µM | 
19 | C=C(C)[C@@H]1CC[C@]2(C=O)CC[C@]3(C)[C@H](CC[C@@H]4[C@@]5(C)CC[C@H](O)C(C)(C)[C@@H]5CC[C@]43C)[C@@H]12 [Betulinaldehyde] |  | > 100 µM | 
20 | CC1(C)[C@@H](OC(=O)CCC(=O)O)CC[C@]2(C)[C@H]3C(=O)C=C4[C@@H]5C[C@@](C)(C(=O)O)CC[C@]5(C)CC[C@@]4(C)[C@]3(C)CC[C@@H]12 [Carbenoxolone, reference compound] |  | 55.8 ± 8.66 µM | 

Row | Structure (SMILES) | IC50 [1] | IC50 | other results
21 | C[C@H]1[C@H](C)CC[C@]2(C(=O)O)CC[C@]3(C)C(=CC[C@@H]4[C@@]5(C)C[C@@H](O)[C@H](O)C(C)(C)[C@@H]5CC[C@]43C)[C@H]12 [Corosolic acid, reference compound] |  | > 100 µM | 
22 | CC(C)(O)/C=C/C(=O)[C@](C)(O)[C@H]1[C@H](O)C[C@@]2(C)[C@@H]3CC=C4[C@@H](C[C@H](O)C(=O)C4(C)C)[C@]3(C)C(=O)C[C@]12C [Cucurbitacin D] |  | > 100 µM | 
23 | CC(=O)OC(C)(C)/C=C/C(=O)[C@](C)(O)[C@H]1[C@H](O)C[C@@]2(C)[C@@H]3CC=C4[C@@H](C=C(O)C(=O)C4(C)C)[C@]3(C)C(=O)C[C@]12C [Cucurbitacin E] |  | 47.2 ± 20.5 µM | 
24 | C[C@@H]1C(=O)O[C@H](C)[C@H]1C[C@@H](O)[C@](C)(O)[C@H]1CC[C@@]2(O)C3=CC(=O)[C@@H]4C[C@@H](O)[C@@H](O)C[C@]4(C)[C@H]3CC[C@]12C [Cyasterone] |  | > 100 µM | 
25 | CC(C)(O)[C@@H]1CC[C@](C)([C@H]2[C@@H](O)C[C@@]3(C)[C@@H]4C[C@H](O)[C@H]5C(C)(C)[C@@H](O)CC[C@@]56C[C@@]46CC[C@]23C)O1 [Cycloastragenol] | > 100 µM |  | 
26 | CC(=O)c1nn(CC(=O)N2C[C@H](F)C[C@H]2C(=O)Nc2cccc(Br)n2)c2ccc(-c3cnc(C)nc3)cc12 [Danicopan, reference compound] |  | > 100 µM | 
27 | CC[C@H](CC[C@@H](C)[C@H]1CC[C@H]2[C@@H]3CC=C4C[C@@H](O[C@@H]5O[C@H](CO)[C@@H](O)[C@H](O)[C@H]5O)CC[C@]4(C)[C@H]3CC[C@]12C)C(C)C [Daucosterol, reference compound] |  |  | IC50 [2]: > 100 µM
28 | C[C@@H]1CC[C@@]2(OC1)O[C@H]1C[C@H]3[C@@H]4CC=C5C[C@@H](O[C@@H]6O[C@H](CO)[C@@H](O)[C@H](O)[C@H]6O)CC[C@]5(C)[C@H]4CC[C@]3(C)[C@H]1[C@@H]2C [Disogluside] |  |  | IC50 [2]: > 100 µM
29 | Cc1ccc(-n2nc(C(C)(C)C)cc2NC(=O)Nc2ccc(OCCN3CCOCC3)c3ccccc23)cc1 [Doramapimod, reference compound] |  | > 100 µM | 
30 | C[C@]12C=CC(=O)N[C@@H]1CC[C@@H]1[C@@H]2CC[C@]2(C)[C@@H](C(=O)Nc3cc(C(F)(F)F)ccc3C(F)(F)F)CC[C@@H]12 [Dutasteride, reference compound] |  | > 100 µM | 
31 | CC(C)(O)CC[C@H]1OC(C)(C)O[C@]1(C)[C@H]1CC[C@@]2(O)C3=CC(=O)[C@@H]4C[C@H]5OC(C)(C)O[C@H]5C[C@]4(C)[C@H]3CC[C@]12C [Ecdysterone 2,3:20,22-diacetonide] | > 100 µM |  | 
32 | C[C@H](NC(=O)c1c(N)nn2cccnc12)c1cc2cccc(C#Cc3cnn(C)c3)c2c(=O)n1-c1ccccc1 [Eganelisib, reference compound] |  |  | IC50 [2]: > 100 µM
33 | CC1(C)[C@@H](O)CC[C@]2(C)[C@H]3C(=O)C=C4[C@@H]5C[C@@](C)(C(=O)O)CC[C@]5(C)CC[C@@]4(C)[C@]3(C)CC[C@@H]12 [Enoxolone, reference compound] |  | 35.5 ± 4.61 µM | 
34 | C[C@H]1CN(C2COC2)CCN1c1ccc(Nc2cc(-c3ccnc(N4CCn5c(cc6c5CC(C)(C)C6)C4=O)c3CO)cn(C)c2=O)nc1 [Fenebrutinib, reference compound] |  |  | IC50 [2]: > 100 µM
35 | CC1=C(/C=C/C(C)=C/C=C/C(C)=C/C(=O)Nc2ccc(O)cc2)C(C)(C)CCC1 [Fenretinide, reference compound] |  | > 100 µM | 
36 | CC(C)=CCC[C@](C)(O[C@@H]1O[C@H](CO)[C@@H](O)[C@H](O)[C@H]1O)[C@H]1CC[C@]2(C)[C@@H]1[C@H](O)C[C@@H]1[C@@]3(C)CC[C@H](O)C(C)(C)[C@@H]3[C@@H](O)C[C@]12C [Ginsenoside F1] |  | > 100 µM | 
37 | CC(C)=CC/C=C(\C)[C@H]1CC[C@]2(C)[C@@H]1[C@H](O)C[C@@H]1[C@@]3(C)CC[C@H](O[C@@H]4O[C@H](CO)[C@@H](O)[C@H](O)[C@H]4O[C@@H]4O[C@H](CO)[C@@H](O)[C@H](O)[C@H]4O)C(C)(C)[C@@H]3CC[C@]12C [Ginsenoside Rg5] |  | > 100 µM | 
38 | CC(C)C1=C2[C@H]3CC[C@@H]4[C@@]5(C)CC[C@H](OC(=O)CC(C)(C)C(=O)O)C(C)(C)[C@@H]5CC[C@@]4(C)[C@]3(C)CC[C@@]2([C@@H](O)CN(CCN(C)C)Cc2ccc(Cl)cc2)CC1=O [Gsk-2838232, reference compound] | > 100 µM |  | 
39 | Cc1ccccc1NC(=O)Nc1ccc(CN2C(=O)N([C@@H](CC(C)C)C(=O)N[C@@H](CC(=O)O)c3ccccc3)C(=O)C2(C)C)cc1 [HMR1031, reference compound] | 91.2 ± 4.88 µM |  | 
